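Results reflect a 48-hour exposure of cells in 96-well plates to compound at five concentrations. TGI denotes the concentration required for complete inhibition of growth.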
Legend:
Assay in all cases: NCI-60 cell line screen, 48 h
[1] = test system: SN12C renal
[2] = test system: NCI-H522 lung
[3] = test system: A549 NSCLC
[4] = test system: OVCAR-5 ovarian
[5] = test system: HCC-2998 colon
[6] = test system: EKVX NSCLC
[7] = test system: MDA-MB-231 breast
[8] = test system: NCI-H460 lung
[9] = test system: UACC-257 melanoma
[10] = test system: CCRF-CEM leukemia
[11] = test system: HT29 colon
[12] = test system: NCI/ADR-RES ovarian
[13] = test system: SK-MEL-28 melanoma
[14] = test system: MDA-MB-435
[15] = test system: HCT-15 colon
[16] = test system: MOLT-4 leukemia
[17] = test system: RPMI-8226 leukemia
[18] = test system: OVCAR-4 ovarian
[19] = test system: MDA-N
[20] = test system: A498 renal

Row | Structure (SMILES) | TGI [1] [µM] | TGI [2] [µM] | TGI [3] [µM] | TGI [4] [µM] | TGI [5] [µM] | TGI [6] [µM] | TGI [7] [µM] | TGI [8] [µM] | TGI [9] [µM] | TGI [10] [µM] | TGI [11] [µM] | TGI [12] [µM] | TGI [13] [µM] | TGI [14] [µM] | TGI [15] [µM] | TGI [16] [µM] | TGI [17] [µM] | TGI [18] [µM] | TGI [19] [µM] | TGI [20] [µM]
1 | O=c1oc2ccc(Cl)cc2cc1-c1cn2ccccc2n1 | 36.8 | > 100 | > 89.3 | > 100 | > 100 | > 100 | > 52.7 | > 62.5 | > 100 | > 100 | > 50.6 | > 77.4 | > 100 | > 100 | > 100 | > 100 | > 100 | 29.8 | > 100 | –
2 | O=C1NC(N2CCCCC2)=N/C1=C\c1ccccc1O | > 100 | > 100 | > 100 | > 100 | – | > 100 | > 100 | – | > 100 | > 100 | > 100 | > 100 | > 100 | > 100 | > 100 | > 100 | > 100 | 91.4 | > 100 | > 100
3 | N#Cc1nc(-c2ccccn2)oc1N | > 100 | > 100 | – | > 100 | > 100 | > 100 | > 100 | > 100 | > 100 | > 100 | > 100 | – | > 100 | > 100 | > 100 | > 100 | > 100 | > 100 | > 100 | > 100
4 | CN(C)S(=O)(=O)n1cnc(CO)c1 | > 100 | > 100 | > 100 | > 100 | > 100 | > 100 | > 100 | > 100 | > 100 | – | – | > 100 | > 100 | > 100 | > 100 | > 100 | > 100 | > 100 | > 100 | > 100
5 | COC(=O)[C@]1(c2cc3ccccc3[nH]2)CC2CN(CC(=O)N(C)OC)C1CC2(OC)OC (stereo partly drawn) | > 100 | 44.6 | > 100 | > 100 | > 100 | > 100 | > 100 | > 100 | > 100 | 32 | > 100 | > 100 | > 100 | 91.3 | > 100 | – | 39.6 | > 100 | > 100 | > 100
6 | COc1ccccc1N=N/C(=N\NC(=O)c1ccc(C)cc1)c1ccc(N(CCC#N)CCC#N)cc1C | > 100 | – | > 100 | > 100 | > 100 | > 100 | > 100 | > 100 | > 100 | > 100 | > 100 | > 100 | > 100 | > 100 | > 100 | > 100 | > 100 | > 100 | > 100 | > 100
7 | O=[N+]([O-])C(=C1Nc2ccccc2N1)/C(Cl)=C(/Cl)N1CCOCC1 | > 100 | – | > 100 | > 100 | > 100 | > 100 | > 100 | > 100 | > 100 | > 100 | > 100 | > 100 | > 100 | > 100 | > 100 | > 100 | > 100 | 61 | > 100 | > 100
8 | COC(=O)c1ccccc1/C=C1\Cc2c(C)cc(C)cc2C1=O | > 100 | > 100 | > 100 | – | > 100 | > 100 | > 100 | > 100 | > 100 | > 100 | > 100 | – | > 100 | – | > 100 | > 100 | > 100 | > 100 | > 100 | > 100
9 | CCN(CC)c1ccc2cc(-c3nnc(-c4ccccc4O)o3)c(=O)oc2c1 | – | 25.5 | 29.1 | 35 | 72.6 | 43.4 | – | 27.9 | 35.1 | 8.63 | 26.3 | 44.1 | 32.3 | 32.7 | 29.4 | 25.9 | > 100 | 27.5 | 30.7 | 29.6
10 | CCN(CC)CCCNc1nc(=O)[nH]c(C)c1C(=O)Nc1ccc2c(c1)c1ccccc1n2CC | > 100 | > 100 | > 100 | > 100 | > 100 | > 100 | > 100 | – | > 100 | > 100 | > 100 | > 100 | > 100 | > 100 | > 100 | > 100 | > 100 | > 100 | > 100 | –
11 | O=C1NC(=O)/C(=C/c2ccc(S(=O)(=O)N/N=C\C(O)C(O)C(O)C(O)CO)cc2)N1 (stereo not drawn) | > 100 | – | > 100 | > 100 | > 100 | > 100 | > 100 | > 100 | > 100 | > 100 | > 100 | > 100 | > 100 | > 100 | > 100 | > 100 | > 100 | > 100 | > 100 | > 100
12 | CN(C)C=NCCN1CCOCC1 | > 100 | > 100 | > 100 | > 100 | – | > 100 | > 100 | – | > 100 | > 100 | > 100 | > 100 | > 100 | > 100 | > 100 | > 100 | > 100 | > 100 | > 100 | > 100
13 | O=C(CCCl)NNC1=NCCCCN1 | > 100 | > 100 | > 100 | > 100 | > 100 | > 100 | > 100 | > 100 | > 100 | > 100 | > 100 | > 100 | > 100 | > 100 | > 100 | > 100 | > 100 | > 100 | > 100 | –
14 | [O-][N+]1=NC(c2ccccc2)=C1c1ccccc1 | > 50 | > 50 | > 50 | > 50 | – | > 50 | > 50 | > 50 | > 50 | > 50 | > 50 | > 50 | > 50 | > 50 | > 50 | > 50 | > 50 | > 50 | > 50 | > 50
15 | O=c1[nH]nc(Cn2c3ccc(Br)cc3c3nc4ccccc4nc32)n1C1CCCCC1 | > 100 | – | > 100 | > 100 | > 100 | > 100 | > 100 | > 100 | > 100 | – | > 100 | > 100 | 59.2 | > 100 | > 100 | > 100 | 77.6 | > 100 | > 100 | 57.4
16 | SCc1ccc(CS)s1 | > 100 | > 100 | > 100 | > 100 | > 100 | > 100 | > 100 | > 100 | > 100 | > 100 | > 100 | > 100 | > 100 | > 100 | > 100 | > 100 | – | > 100 | > 100 | –
17 | CC(=O)c1cccc(NC(=O)C(=O)C(c2cnc3ccc([N+](=O)[O-])cc3n2)[N+](=O)[O-])c1 (stereo not drawn) | > 100 | – | – | > 100 | > 100 | > 100 | > 100 | > 100 | > 100 | > 100 | > 100 | > 100 | > 100 | > 100 | > 100 | > 100 | > 100 | > 100 | > 100 | > 100
18 | O=C(O)CNn1c(SCC(=O)O)nnc(/C=C/c2c(O)ccc3ccccc23)c1=O | > 100 | > 100 | > 100 | > 100 | > 100 | 66.2 | – | > 100 | > 100 | 14.9 | > 100 | 67.9 | > 100 | > 100 | > 100 | – | > 100 | > 100 | > 100 | > 100
19 | COc1ccc(/C=C2/NC(=S)N=C2Cl)cc1 | > 100 | > 100 | > 100 | 37.9 | – | > 100 | > 100 | – | > 100 | > 100 | > 100 | > 100 | > 100 | > 100 | > 100 | > 100 | > 100 | > 100 | > 100 | > 100
20 | Fc1cccc(Cl)c1C1SCc2nc3cc4ccccc4cc3n21 (stereo not drawn) | > 100 | – | > 100 | > 100 | > 100 | > 100 | > 100 | – | > 100 | > 100 | > 100 | > 100 | > 100 | > 100 | > 100 | > 100 | > 100 | > 100 | > 100 | –
21 | COc1ccc(N=Nc2c(C)c(C#N)c(=S)n(C3OC(CO)C(O)C(O)C3O)c2C)cc1 (stereo not drawn) | – | – | > 100 | > 100 | – | – | > 100 | > 100 | > 100 | 89.2 | > 100 | > 100 | > 100 | > 100 | > 100 | 84.6 | > 100 | > 100 | > 100 | –
22 | COc1cc([C@@]23OC[C@@H]4[C@@H](OC[C@@H]42)c2cc4c(cc23)OCO4)cc(OC)c1OC | – | < 0.01 | > 100 | > 100 | 0.0241 | – | < 0.01 | – | > 100 | > 100 | > 100 | < 0.01 | > 100 | > 100 | > 100 | > 100 | > 77.1 | > 100 | > 100 | 15.1
23 | Cc1c(N/C=C(\C#N)C(=O)c2ccc(Cl)cc2)c(=O)n(-c2ccccc2)n1C | > 100 | > 100 | > 100 | > 100 | > 100 | > 100 | > 100 | > 100 | > 100 | > 100 | – | > 100 | > 100 | > 100 | > 100 | – | > 100 | > 100 | > 100 | > 100
24 | O=C(CN1CCOCC1)c1ccc2c(c1)oc(=O)n2CCN1CCCC1 | > 100 | – | – | > 100 | – | > 100 | > 100 | > 100 | > 100 | > 100 | > 100 | > 100 | > 100 | > 100 | > 100 | > 100 | > 100 | – | > 100 | > 100
25 | O=[N+]([O-])/C(C(Cl)=C(Cl)Cl)=C(\Nc1ccccc1)n1nnc2ccccc21 | > 100 | – | > 100 | > 100 | > 100 | > 100 | > 100 | > 100 | > 100 | 65.9 | > 100 | > 100 | > 100 | 86.5 | > 100 | > 100 | 93 | 35 | > 100 | > 100
26 | Cc1nc2ccc(NC3OC(CO)C(O)C(O)C3O)cc2c(=O)n1-c1ccccc1 (stereo not drawn) | > 100 | > 100 | – | > 100 | > 100 | > 100 | > 100 | > 100 | > 100 | – | > 100 | > 100 | > 100 | > 100 | > 100 | > 100 | > 100 | > 100 | > 100 | > 100

Reference: PubChem BioAssay (NCI)
